According to PubChem BioAssay (NCI):
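Following 48 hours of exposure in 96-well plates, responses at five concentrations were used to interpolate endpoints linearly. GI50 marks 50% less growth. TGI: total growth inhibition.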

Tests used:
Test in all cases: NCI tumour cell line growth inhibition, 48 h
786-0 renal = system: 786-0 renal
A498 renal = system: A498 renal
A549 NSCLC = system: A549 NSCLC
ACHN renal = system: ACHN renal
BT-549 breast = system: BT-549 breast
CAKI-1 renal = system: CAKI-1 renal
CCRF-CEM leukemia = system: CCRF-CEM leukemia
COLO 205 colon = system: COLO 205 colon
DU-145 prostate = system: DU-145 prostate
EKVX NSCLC = system: EKVX NSCLC
HCC-2998 colon = system: HCC-2998 colon
HCT-116 colon = system: HCT-116 colon
HCT-15 colon = system: HCT-15 colon
HL-60(TB) leukemia = system: HL-60(TB) leukemia
HOP-62 NSCLC = system: HOP-62 NSCLC
HOP-92 NSCLC = system: HOP-92 NSCLC
HS 578T breast = system: HS 578T breast
HT29 colon = system: HT29 colon
IGROV1 ovarian = system: IGROV1 ovarian
K-562 leukemia = system: K-562 leukemia
KM12 colon = system: KM12 colon
LOX IMVI melanoma = system: LOX IMVI melanoma
M14 melanoma = system: M14 melanoma
MALME-3M melanoma = system: MALME-3M melanoma
MDA-MB-231 breast = system: MDA-MB-231 breast
MDA-MB-435 = system: MDA-MB-435
MOLT-4 leukemia = system: MOLT-4 leukemia
NCI-H226 lung = system: NCI-H226 lung
NCI-H23 lung = system: NCI-H23 lung
NCI-H522 lung = system: NCI-H522 lung
NCI/ADR-RES ovarian = system: NCI/ADR-RES ovarian
OVCAR-4 ovarian = system: OVCAR-4 ovarian
OVCAR-5 ovarian = system: OVCAR-5 ovarian
OVCAR-8 ovarian = system: OVCAR-8 ovarian
PC-3 prostate = system: PC-3 prostate
RXF 393 renal = system: RXF 393 renal
SF-268 CNS = system: SF-268 CNS
SF-295 CNS = system: SF-295 CNS
SF-539 CNS = system: SF-539 CNS
SK-MEL-2 melanoma = system: SK-MEL-2 melanoma
SK-MEL-5 melanoma = system: SK-MEL-5 melanoma
SK-OV-3 ovarian = system: SK-OV-3 ovarian
SN12C renal = system: SN12C renal
SNB-19 CNS = system: SNB-19 CNS
SNB-75 CNS = system: SNB-75 CNS
SR leukemia = system: SR leukemia
SW-620 colon = system: SW-620 colon
T-47D breast = system: T-47D breast
TK-10 renal = system: TK-10 renal
U251 CNS = system: U251 CNS
UACC-257 melanoma = system: UACC-257 melanoma
UACC-62 melanoma = system: UACC-62 melanoma
UO-31 renal = system: UO-31 renal

## CCN(CC)CCN1C(=O)C2C3C(C)=CC(OC(C)=O)(CC3C)C2C1=O (stereo unspecified)
786-0 renal
  GI50: > 100 µM
  TGI: > 100 µM
A498 renal
  GI50: > 100 µM
  TGI: > 100 µM
A549 NSCLC
  GI50: > 100 µM
  TGI: > 100 µM
ACHN renal
  GI50: > 100 µM
  TGI: > 100 µM
BT-549 breast
  GI50: > 100 µM
  TGI: > 100 µM
CAKI-1 renal
  GI50: > 100 µM
  TGI: > 100 µM
CCRF-CEM leukemia
  GI50: > 100 µM
  TGI: > 100 µM
COLO 205 colon
  GI50: > 100 µM
  TGI: > 100 µM
DU-145 prostate
  GI50: > 100 µM
  TGI: > 100 µM
EKVX NSCLC
  GI50: > 100 µM
  TGI: > 100 µM
HCC-2998 colon
  GI50: > 100 µM
  TGI: > 100 µM
HCT-116 colon
  GI50: > 100 µM
  TGI: > 100 µM
HCT-15 colon
  GI50: > 100 µM
  TGI: > 100 µM
HL-60(TB) leukemia
  GI50: > 100 µM
  TGI: > 100 µM
HOP-62 NSCLC
  GI50: > 100 µM
  TGI: > 100 µM
HOP-92 NSCLC
  GI50: > 100 µM
  TGI: > 100 µM
HS 578T breast
  GI50: 75.3 µM
  TGI: > 100 µM
HT29 colon
  GI50: > 100 µM
  TGI: > 100 µM
IGROV1 ovarian
  GI50: > 100 µM
  TGI: > 100 µM
K-562 leukemia
  GI50: > 100 µM
  TGI: > 100 µM
KM12 colon
  GI50: > 100 µM
  TGI: > 100 µM
LOX IMVI melanoma
  GI50: > 100 µM
  TGI: > 100 µM
M14 melanoma
  GI50: > 100 µM
  TGI: > 100 µM
MALME-3M melanoma
  GI50: > 100 µM
  TGI: > 100 µM
MDA-MB-231 breast
  GI50: > 100 µM
  TGI: > 100 µM
MDA-MB-435
  GI50: > 100 µM
  TGI: > 100 µM
MOLT-4 leukemia
  GI50: > 100 µM
  TGI: > 100 µM
NCI-H226 lung
  GI50: > 100 µM
  TGI: > 100 µM
NCI-H23 lung
  GI50: > 100 µM
  TGI: > 100 µM
NCI-H522 lung
  GI50: > 100 µM
  TGI: > 100 µM
NCI/ADR-RES ovarian
  GI50: > 100 µM
  TGI: > 100 µM
OVCAR-4 ovarian
  GI50: > 100 µM
  TGI: > 100 µM
OVCAR-5 ovarian
  GI50: > 100 µM
  TGI: > 100 µM
OVCAR-8 ovarian
  GI50: > 100 µM
  TGI: > 100 µM
PC-3 prostate
  GI50: > 100 µM
  TGI: > 100 µM
RXF 393 renal
  GI50: > 100 µM
  TGI: > 100 µM
SF-268 CNS
  GI50: > 100 µM
  TGI: > 100 µM
SF-295 CNS
  GI50: > 100 µM
  TGI: > 100 µM
SF-539 CNS
  GI50: > 100 µM
  TGI: > 100 µM
SK-MEL-2 melanoma
  GI50: > 100 µM
  TGI: > 100 µM
SK-MEL-5 melanoma
  GI50: > 100 µM
  TGI: > 100 µM
SK-OV-3 ovarian
  GI50: > 100 µM
  TGI: > 100 µM
SN12C renal
  GI50: > 100 µM
  TGI: > 100 µM
SNB-19 CNS
  GI50: > 100 µM
  TGI: > 100 µM
SNB-75 CNS
  GI50: > 100 µM
  TGI: > 100 µM
SR leukemia
  GI50: > 100 µM
  TGI: > 100 µM
SW-620 colon
  GI50: > 100 µM
  TGI: > 100 µM
T-47D breast
  GI50: > 100 µM
  TGI: > 100 µM
TK-10 renal
  GI50: > 100 µM
  TGI: > 100 µM
U251 CNS
  GI50: > 100 µM
  TGI: > 100 µM
UACC-257 melanoma
  GI50: > 100 µM
  TGI: > 100 µM
UACC-62 melanoma
  GI50: > 100 µM
  TGI: > 100 µM
UO-31 renal
  GI50: > 100 µM
  TGI: > 100 µM
